The source of these data is patent US20160168540A1, “COMPOSITION FOR MAINTAINING PLATELET FUNCTION” (KYOTO UNIVERSITY, priority 2013, published 2016).

“Also recorded” adds a separate entry of the source. Like-named read-outs stand apart in the source and are kept apart here.

For data set [1], the system named is iPS cell-derived platelets. As to the kind of experiment: Function-maintaining effect on iPS cell-derived platelets (flow cytometry of CD41a/CD42a/CD42b). In kind it is cell-based, human. The procedure: Human iPS cells (hiPS cells), an iPS cell line (TkDA3-4) established at the University of Tokyo by introducing Oct4, Klf4, Sox2, and c-Myc into human-derived skin cells were cultured on inactivated mouse fibroblasts by treating with 10 μg/mL MitomycinC (manufactured by Wako Pure Chemical Industries Ltd.) in a medium mixture of Dulbecco's modified Eagle's medium and Ham's F-12 medium (manufactured by Sigma-Aldrich Co.) (mixing ratio 1:1) supplemented with 0.1 mM non-essential amino acid (manufactured by Invitrogen Corp.), PSG (100 U/mL penicillin, 100 U/mL streptomycin, and 2 mM L-glutamine) (manufactured by Invitrogen Corp.), 20% knockout serum replacement additive (KSR, manufactured by Invitrogen Corp.), 0.1 mM 2-mercaptoethanol (manufactured by Invitrogen Corp.), and 5 ng/ml basic fibroblast growth factor (bFGF, manufactured by Wako Pure Chemical Industries Ltd.). The cells were subcultured every 3 days, and those cells maintaining an undifferentiated state were used.
In addition, mouse embryo-derived fibroblasts, a C3H10T½ cell line (hereinafter also referred to as “10T½ cells”), purchased from RIKEN BioResource Center were cultured in basal medium Eagle (BME, manufactured by Invitrogen Corp.) supplemented with 10% fetal bovine serum (FBS) and PSG (100 U/mL penicillin, 100 U/mL streptomycin, and 2 mM L-glutamine) (manufactured by Invitrogen Corp.). Then, the 10T½ cells, which had been deactivated in advance by treating with MitomycinC, were seeded so as to give a cell count of 8×10^6/10-cm dish for use as feeder cells. […]
Next, the sac structures were detached from the dish, split open, passed through a 40-μm cell strainer (manufactured by BD), and then centrifuged at 1,500 rpm for 8 minutes to collect hematopoietic progenitor cells. […] Then, the number of cells was counted. […]
For orientation: Flow cytometry measures light scatter and fluorescence of single cells or particles in a stream.

The next data set deals with T1, TACE (ADAM17) (Homo sapiens, UniProt P78536).
T1 construct: made in house; host or cells: mammalian cells or insect cells
T1 sequence (P78536 215-824): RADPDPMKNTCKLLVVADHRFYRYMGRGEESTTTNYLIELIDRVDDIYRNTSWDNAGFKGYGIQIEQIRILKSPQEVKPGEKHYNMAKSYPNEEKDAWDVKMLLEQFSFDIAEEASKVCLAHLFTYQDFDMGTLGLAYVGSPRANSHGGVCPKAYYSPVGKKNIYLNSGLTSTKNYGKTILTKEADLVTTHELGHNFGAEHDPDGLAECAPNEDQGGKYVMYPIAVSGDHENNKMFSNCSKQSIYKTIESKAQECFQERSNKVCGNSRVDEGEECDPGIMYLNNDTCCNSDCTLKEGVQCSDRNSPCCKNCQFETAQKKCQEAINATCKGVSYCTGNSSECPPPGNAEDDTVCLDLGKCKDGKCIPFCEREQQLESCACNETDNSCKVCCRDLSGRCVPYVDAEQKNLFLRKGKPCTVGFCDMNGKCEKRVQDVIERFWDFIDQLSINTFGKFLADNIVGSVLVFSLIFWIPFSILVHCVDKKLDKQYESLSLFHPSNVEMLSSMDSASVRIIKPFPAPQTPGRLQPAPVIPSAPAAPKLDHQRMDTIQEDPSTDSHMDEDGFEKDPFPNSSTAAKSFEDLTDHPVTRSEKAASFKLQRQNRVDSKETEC
As to the kind of experiment: TACE (ADAM17) inhibition test. The settings on record: fluorescent synthetic substrate, 37° C. for 1.5 hours. The format is biochemical. The method, boiled down:
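Recombinant human TACE (mammalian or insect cell expressed) cleaves Nma-LAQAVRSSK(Dnp)-D-Arg-NH2 quenched substrate, 1.5 h at 37 °C. Fluorescence read at Ex 355/Em 460 nm; IC50 from inhibition vs no-compound control, binned A (<100 nM) or B (≥100 nM).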

Data set [2] concerns human peripheral blood-derived platelets. Briefly: Function-maintaining effect on human peripheral blood-derived platelets (CCCP-enhanced GPIbα shedding). The format is cell-based. The settings on record: 0.1 to 100 μM, with 100 μM of CCCP, 37° C. for 24 hours; listed as S-108470. On the procedure: First, ACD was added in a ratio of 1/10 to human peripheral blood obtained by collecting blood, and centrifuged at 900 rpm for 10 minutes without a break. The supernatant obtained by the centrifugation was further centrifuged at 1,500 rpm for 10 minutes without a break, and then the supernatant was removed. The obtained precipitate was suspended in a Tyrode-HEPES buffer (not containing calcium). The number of platelets in the suspension was counted, and the platelet-containing suspension (Washed Platelet) was adjusted to have a fixed number (about 5×10^7) of platelets in 200 μL of the Tyrode-HEPES buffer (not containing calcium). Next, as described in Protocol 2 shown in FIG. 1, one of either S-108470 (0.1 to 100 μM), TACE inhibitor S (50 μM), or DMSO was added together with 100 μM of CCCP (carbonyl cyanide m-chlorophenyl hydrazone) to the washed platelets. After incubation at 37° C. for 24 hours, the number of CD42b (GPIbα) (+) cells in the CD41a (+) platelets was measured by flow cytometry. Note that, it is known that addition of CCCP enhances GPIbα shedding on the surface of platelets (see Bergmeier et al., Blood, 2003, vol. 102, pp. 4229-4235).

Take `Cc1cccn(CC2(c3ccc(F)c(F)c3)NC(=O)NC2=O)c1=O` (single isomer, unassigned; (+)) [(+)-I-10, (+)-5-(3,4-difluorophenyl)-5-[(3-methyl-2-oxopyridin-1(2H)-yl)methyl]imidazolidine-2,4-dione]: the “number of obtained CD41a (+) CD42a (+) platelets compared with the medium control group” value in data set [1] (10 and 30 μM, treated for 9 to 10 days) is recorded as “slightly larger”. In data set [1] (10 and 30 μM, treated for 9 to 10 days, listed as S-108470), the “percentage of CD41a (+) CD42a (+) CD42b (+) platelets compared with the medium control group” value is “significant increase; also recorded: increased the percentage of CD42b (+) cells”. The “cytotoxicity / impact on platelet differentiation” value in data set [1] (culture system using iPS cells) is “without exhibiting cytotoxicity or having any impact on platelet differentiation”. Also, the IC50 – broadly, the concentration that inhibits the measured activity by half – is less than 0.1 µM at TACE (ADAM17) (read-out: TACE IC50) and less than 0.1 µM on TACE (ADAM17) (read-out: TACE inhibitory action, IC50 value). The “inhibition of GPIbα shedding (CD42b (GPIbα) (+) cells in the CD41a (+) platelets)” value in data set [2] is “inhibits GPIbα shedding in a concentration-dependent manner; also recorded: suppressed in a concentration-dependent manner”.
On to `Cc1cccn(CC2(c3ccc(CCc4ccccc4)cc3)NC(=O)NC2=O)c1=O` (racemic) [Compound I-107], for which, at TACE (ADAM17) (read-out: TACE IC50), the IC50 was less than 0.1 µM.
Take `Cc1cccn(CC2(c3cc4ccccc4o3)NC(=O)NC2=O)c1=O` (racemic) [Compound I-6, 5-(benzofuran-2-yl)-5-[(3-methyl-2-oxopyridin-1(2H)-yl)methyl]imidazolidine-2,4-dione]: the IC50 at TACE (ADAM17) (read-out: TACE IC50) is less than 0.1 µM.
For `CCc1cccn(CC2(c3ccc(OC)cc3)NC(=O)NC2=O)c1=O` (racemic) [Compound I-53, 5-[(3-ethyl-2-oxopyridin-1(2H)-yl)methyl]-5-(4-methoxyphenyl)imidazolidine-2,4-dione], the IC50 on TACE (ADAM17) (read-out: TACE IC50) was no less than 0.1 µM.
Same read-out and setting: the figure for `Cc1cccn(CC2(c3ccc(-c4nn[nH]n4)cc3)NC(=O)NC2=O)c1=O` (racemic) [Compound I-42, 5-[4-(2H-tetrazol-5-yl)phenyl]-5-[(3-methyl-2-oxopyridin-1(2H)-yl)methyl]imidazolidine-2,4-dione] is less than 0.1 µM; for `Cc1cccn(CC2(c3cccc(C#CCN(C)C)c3)NC(=O)NC2=O)c1=O` (racemic) [Compound I-71] it is less than 0.1 µM.
In the case of `O=C1NC(=O)C(Cn2cccc(Br)c2=O)(c2ccc(F)c(F)c2)N1` (racemic) [Compound I-147], the IC50 at TACE (ADAM17) (read-out: TACE IC50) is less than 0.1 µM.
Same read-out and setting: with `O=C1NC(=O)C(Cn2cccc(C(F)(F)F)c2=O)(c2ccccc2)N1` (racemic) [Compound I-140] the figure was less than 0.1 µM; with `COc1cccc(C2(Cn3cccc(C)c3=O)NC(=O)NC2=O)c1` (racemic) [Compound I-4, 5-(3-methoxyphenyl)-5-[(3-methyl-2-oxopyridin-1(2H)-yl)methyl]imidazolidine-2,4-dione], less than 0.1 µM.
On the same count and under the same terms, the figure for `COc1ccc(C2(Cn3cccc(C)c3=O)NC(=O)NC2=O)cc1` (racemic) [Compound I-2, 5-(4-methoxyphenyl)-5-[(3-methyl-2-oxopyridin-1(2H)-yl)methyl]imidazolidine-2,4-dione] is less than 0.1 µM.
On the same count and under the same terms, the figure for `Cc1cccn(CC2(c3cccc(Br)c3)NC(=O)NC2=O)c1=O` (racemic) [Compound I-57] is less than 0.1 µM; for `Cc1cccn(CC2(c3cccc(-c4cccnc4)c3)NC(=O)NC2=O)c1=O` (racemic) [Compound I-62] it is less than 0.1 µM; for `Cc1cc(C2(Cn3cccc(C)c3=O)NC(=O)NC2=O)ccc1OC1C=CCCC1` (stereo not drawn) [Compound I-38] it is less than 0.1 µM.
